Earlier results as cited in patent publication US12458589B2, “Implantable polymer depots for the controlled release of therapeutic agents” (Foundry Therapeutics, Inc., priority 2018, dated 2025).
Where two headings read alike, the source gives them in different places.

Legend:
[1] = not given; remark: listed apart in the source

## CCCCN1CCCCC1C(=O)Nc1c(C)cccc1C (centres unmarked) [bupivacaine]
other
  generally regarded as safe plasma level: 1,000 ng/mL
[1]
  generally regarded as safe plasma level: 1,000 ng/mL
